Two compounds from ChEMBL document CHEMBL4385643, “Design of a brain-penetrant CDK4/6 inhibitor for glioblastoma” (Bioorg Med Chem Lett, 2019) can be followed below.

Usually inhibition stands for the drop in the measured response relative to a control, in per cent.

Assay [1] addresses Serine/threonine-protein kinase BRSK1 (Homo sapiens) (UniProt Q8TDC3). Kind of assay: Inhibition of recombinant full length human GST-tagged BRSK1 expressed in baculovirus expression system at 0.1 uM using serine/threonine-21 peptide as substrate incubated for 60 mins by Z'-LYTE assay relative to control.
For assay [2], the target named is Serine/threonine-protein kinase PAK 4 (Homo sapiens) (UniProt O96013). The assay is described as follows: Inhibition of recombinant human GST-tagged PAK4 catalytic domain (295 to 591 residues) expressed in baculovirus expression system at 0.1 uM using serine/threonine-20 peptide as substrate incubated for 60 mins by Z'-LYTE assay relative to control.
Chain of Serine/threonine-protein kinase PAK 4 (Homo sapiens) (O96013 whole entry, looked up, the tested form may be a part): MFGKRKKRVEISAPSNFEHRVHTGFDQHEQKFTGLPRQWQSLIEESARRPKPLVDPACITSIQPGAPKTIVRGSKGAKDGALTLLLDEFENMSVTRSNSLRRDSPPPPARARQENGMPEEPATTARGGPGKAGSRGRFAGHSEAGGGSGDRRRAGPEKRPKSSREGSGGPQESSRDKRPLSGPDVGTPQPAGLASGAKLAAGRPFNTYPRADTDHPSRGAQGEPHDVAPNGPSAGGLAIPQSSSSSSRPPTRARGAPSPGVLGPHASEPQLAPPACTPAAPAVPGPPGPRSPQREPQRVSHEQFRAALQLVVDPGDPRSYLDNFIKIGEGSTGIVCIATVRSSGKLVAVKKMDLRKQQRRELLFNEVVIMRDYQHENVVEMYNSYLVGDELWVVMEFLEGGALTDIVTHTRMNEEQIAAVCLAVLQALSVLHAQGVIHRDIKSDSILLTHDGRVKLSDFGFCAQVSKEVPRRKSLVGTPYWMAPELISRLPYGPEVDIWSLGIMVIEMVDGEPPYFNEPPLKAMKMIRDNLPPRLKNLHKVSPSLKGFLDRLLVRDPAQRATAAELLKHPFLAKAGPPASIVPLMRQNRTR
Assay [3] addresses Aurora kinase B (Homo sapiens) (UniProt Q96GD4). The assay is described as follows: Inhibition of recombinant full length human His-tagged Aurora B expressed in baculovirus expression system at 0.1 uM using serine/threonine-1 peptide as substrate incubated for 60 mins by Z'-LYTE assay relative to control.
The target in assay [4] is Receptor tyrosine-protein kinase erbB-2 (Homo sapiens) (UniProt P04626). Kind of assay: Inhibition of recombinant human His-tagged ERBB2 catalytic domain (676 to 1255 residues) expressed in baculovirus expression system at 0.1 uM using tyrosine-6 peptide as substrate incubated for 60 mins by Z'-LYTE assay relative to control.
In assay [5] the target is Eukaryotic elongation factor 2 kinase (Homo sapiens) (UniProt O00418). The assay is described as follows: Inhibition of recombinant full length human GST-tagged EEF2K expressed in Escherichia coli expression system at 0.1 uM using serine/threonine-24 peptide as substrate incubated for 60 mins by Z'-LYTE assay relative to control.
The target in assay [6] is Inhibitor of nuclear factor kappa-B kinase subunit epsilon (Homo sapiens) (UniProt Q14164). Kind of assay: Inhibition of recombinant full length human GST-tagged IKKepsilon expressed in baculovirus expression system at 0.1 uM using serine/threonine-11 peptide as substrate incubated for 60 mins by Z'-LYTE assay relative to control.
Chain of Inhibitor of nuclear factor kappa-B kinase subunit epsilon (Homo sapiens) (Q14164 whole entry, the tested form may be a part): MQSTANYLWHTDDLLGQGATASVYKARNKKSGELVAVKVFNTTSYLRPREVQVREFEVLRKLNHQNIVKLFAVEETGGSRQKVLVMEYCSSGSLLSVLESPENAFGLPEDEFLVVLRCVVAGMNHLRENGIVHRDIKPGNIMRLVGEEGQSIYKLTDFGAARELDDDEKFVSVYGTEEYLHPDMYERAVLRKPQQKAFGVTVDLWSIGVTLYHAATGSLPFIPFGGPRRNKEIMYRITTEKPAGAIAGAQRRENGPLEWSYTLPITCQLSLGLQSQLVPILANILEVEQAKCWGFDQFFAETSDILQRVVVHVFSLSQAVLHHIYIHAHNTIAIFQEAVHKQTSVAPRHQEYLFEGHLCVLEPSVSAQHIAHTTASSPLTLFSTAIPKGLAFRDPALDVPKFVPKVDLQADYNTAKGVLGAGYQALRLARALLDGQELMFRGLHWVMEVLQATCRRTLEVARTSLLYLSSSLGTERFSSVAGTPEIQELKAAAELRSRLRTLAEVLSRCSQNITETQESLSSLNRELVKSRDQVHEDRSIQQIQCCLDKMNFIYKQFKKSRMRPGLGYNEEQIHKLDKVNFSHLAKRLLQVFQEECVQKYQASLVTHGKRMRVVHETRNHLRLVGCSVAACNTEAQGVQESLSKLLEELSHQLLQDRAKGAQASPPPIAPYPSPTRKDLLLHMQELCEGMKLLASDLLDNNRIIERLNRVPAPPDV
Assay [7] has as its target Receptor-type tyrosine-protein kinase FLT3 (Homo sapiens) (UniProt P36888). The assay is described as follows: Inhibition of recombinant human His-tagged FLT3 catalytic domain (564 to 958 residues) expressed in baculovirus expression system at 0.1 uM using tyrosine-2 peptide as substrate incubated for 60 mins by Z'-LYTE assay relative to control.
In assay [8] the target is Insulin receptor (Homo sapiens) (UniProt P06213). Kind of assay: Inhibition of recombinant human GST-tagged INSR (1011 to 1382 residues) expressed in baculovirus expression system at 0.1 uM using tyrosine-1 peptide as substrate incubated for 60 mins by Z'-LYTE assay relative to control.
The target in assay [9] is Dual specificity mitogen-activated protein kinase kinase 1 (Homo sapiens) (UniProt Q02750). Kind of assay: Inhibition of recombinant full length human His-tagged MEK1 expressed in baculovirus expression system at 0.1 uM using serine/threonine-3 peptide as substrate incubated for 60 mins by Z'-LYTE assay relative to control.
Assay [10] deals with Mitogen-activated protein kinase kinase kinase kinase 5 (Homo sapiens) (UniProt Q9Y4K4). The assay is described as follows: Inhibition of recombinant full length human GST-tagged KHS1 expressed in baculovirus expression system at 0.1 uM using serine/threonine-7 peptide as substrate incubated for 60 mins by Z'-LYTE assay relative to control.
Chain of Mitogen-activated protein kinase kinase kinase kinase 5 (Homo sapiens) (Q9Y4K4 whole entry, looked up, the tested form may be a part): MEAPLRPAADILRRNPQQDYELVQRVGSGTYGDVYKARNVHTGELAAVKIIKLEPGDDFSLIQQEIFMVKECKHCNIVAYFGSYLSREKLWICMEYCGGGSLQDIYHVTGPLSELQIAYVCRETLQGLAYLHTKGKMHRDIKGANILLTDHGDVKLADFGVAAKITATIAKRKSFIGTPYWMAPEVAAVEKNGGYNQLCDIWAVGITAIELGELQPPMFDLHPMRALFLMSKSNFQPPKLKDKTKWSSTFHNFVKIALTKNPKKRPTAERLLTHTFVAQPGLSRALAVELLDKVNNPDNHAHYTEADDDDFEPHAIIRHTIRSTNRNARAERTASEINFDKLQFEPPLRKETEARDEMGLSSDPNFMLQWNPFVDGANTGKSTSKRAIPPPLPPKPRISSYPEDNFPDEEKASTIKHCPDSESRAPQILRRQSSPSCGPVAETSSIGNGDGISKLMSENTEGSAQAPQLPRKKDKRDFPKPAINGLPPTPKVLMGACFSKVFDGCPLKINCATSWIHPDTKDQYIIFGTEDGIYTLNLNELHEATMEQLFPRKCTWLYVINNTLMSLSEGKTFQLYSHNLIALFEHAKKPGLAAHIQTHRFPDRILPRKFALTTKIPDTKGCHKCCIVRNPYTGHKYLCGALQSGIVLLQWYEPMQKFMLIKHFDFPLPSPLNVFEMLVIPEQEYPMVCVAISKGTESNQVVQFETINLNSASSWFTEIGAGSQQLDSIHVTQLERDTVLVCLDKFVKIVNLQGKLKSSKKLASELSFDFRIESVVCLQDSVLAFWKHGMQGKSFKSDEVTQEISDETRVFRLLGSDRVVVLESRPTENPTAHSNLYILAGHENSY
The target of assay [11] is Serine/threonine-protein kinase Nek9 (Homo sapiens) (UniProt Q8TD19). The assay is described as follows: Inhibition of recombinant human GST-tagged NEK9 catalytic domain (347 to 732 residues) expressed in baculovirus expression system at 0.1 uM using serine/threonine-7 peptide as substrate incubated for 60 mins by Z'-LYTE assay relative to control.
For assay [12], the target named is Epithelial discoidin domain-containing receptor 1 (Homo sapiens) (UniProt Q08345). Kind of assay: Inhibition of tracer 178 binding to recombinant human GST-tagged DDR1 catalytic domain (440 to 876 residues) expressed in baculovirus expression system at 0.1 uM measured after 60 mins by Lanthascreen assay relative to control. (In general: TR-FRET usually uses a lanthanide donor and a delayed reading to cut background.)
Chain of Epithelial discoidin domain-containing receptor 1 (Homo sapiens) (Q08345 whole entry, the tested form may be a part): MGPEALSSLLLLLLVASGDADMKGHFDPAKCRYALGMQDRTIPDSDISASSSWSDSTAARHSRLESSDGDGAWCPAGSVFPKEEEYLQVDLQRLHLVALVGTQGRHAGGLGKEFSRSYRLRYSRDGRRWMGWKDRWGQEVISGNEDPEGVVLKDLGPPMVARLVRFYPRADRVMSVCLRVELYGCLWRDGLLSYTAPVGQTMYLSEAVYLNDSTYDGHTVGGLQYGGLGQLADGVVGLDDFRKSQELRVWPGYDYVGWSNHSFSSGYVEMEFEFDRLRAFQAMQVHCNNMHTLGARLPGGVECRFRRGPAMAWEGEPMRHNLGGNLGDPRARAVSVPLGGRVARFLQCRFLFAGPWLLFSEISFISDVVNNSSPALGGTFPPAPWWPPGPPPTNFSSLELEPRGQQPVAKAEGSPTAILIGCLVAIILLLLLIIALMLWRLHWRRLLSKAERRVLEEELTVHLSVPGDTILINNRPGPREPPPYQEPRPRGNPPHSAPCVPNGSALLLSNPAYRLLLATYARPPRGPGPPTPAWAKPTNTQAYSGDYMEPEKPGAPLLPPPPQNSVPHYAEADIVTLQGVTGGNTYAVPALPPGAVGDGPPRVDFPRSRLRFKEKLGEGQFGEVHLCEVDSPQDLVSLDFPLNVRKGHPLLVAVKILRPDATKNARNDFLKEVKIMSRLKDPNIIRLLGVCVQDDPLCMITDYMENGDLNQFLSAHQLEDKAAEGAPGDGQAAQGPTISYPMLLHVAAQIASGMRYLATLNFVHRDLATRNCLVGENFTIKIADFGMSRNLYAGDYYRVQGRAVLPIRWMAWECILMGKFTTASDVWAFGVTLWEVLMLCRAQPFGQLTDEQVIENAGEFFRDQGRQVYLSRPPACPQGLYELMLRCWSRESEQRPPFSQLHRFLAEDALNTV

For assay [13], the target named is Serine/threonine-protein kinase DCLK2 (Homo sapiens) (UniProt Q8N568). The assay is described as follows: Inhibition of recombinant full length human GST-tagged DCAMKL2 expressed in baculovirus expression system at 0.1 uM using serine/threonine-17 peptide as substrate incubated for 60 mins by Z'-LYTE assay relative to control.
The target in assay [14] is Tyrosine-protein kinase Blk (Homo sapiens) (UniProt P51451). The assay is described as follows: Inhibition of recombinant full length human His-tagged BLK expressed in baculovirus expression system at 0.1 uM using tyrosine-1 peptide as substrate incubated for 60 mins by Z'-LYTE assay relative to control.
Chain of Tyrosine-protein kinase Blk (Homo sapiens) (P51451 2-505 limits assumed): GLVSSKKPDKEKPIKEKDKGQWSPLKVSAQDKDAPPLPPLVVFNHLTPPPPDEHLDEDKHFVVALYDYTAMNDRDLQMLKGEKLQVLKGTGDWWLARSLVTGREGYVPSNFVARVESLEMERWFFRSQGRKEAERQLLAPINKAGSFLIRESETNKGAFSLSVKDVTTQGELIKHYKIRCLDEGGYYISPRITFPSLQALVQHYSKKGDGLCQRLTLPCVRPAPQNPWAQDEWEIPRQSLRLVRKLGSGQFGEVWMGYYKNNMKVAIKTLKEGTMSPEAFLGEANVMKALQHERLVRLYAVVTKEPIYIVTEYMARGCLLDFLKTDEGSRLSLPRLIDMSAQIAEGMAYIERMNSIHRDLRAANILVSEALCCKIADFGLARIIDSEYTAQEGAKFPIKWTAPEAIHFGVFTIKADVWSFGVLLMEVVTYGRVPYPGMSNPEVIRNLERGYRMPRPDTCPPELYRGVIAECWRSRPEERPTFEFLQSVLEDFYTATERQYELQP
The target in assay [15] is Casein kinase I isoform gamma-2 (Homo sapiens) (UniProt P78368). The assay is described as follows: Inhibition of recombinant full length human His-tagged CK1 gamma 2 expressed in baculovirus expression system at 0.1 uM using serine/threonine-5 peptide as substrate incubated for 60 mins by Z'-LYTE assay relative to control.
Chain of Casein kinase I isoform gamma-2 (Homo sapiens) (P78368 whole entry, looked up, the tested form may be a part, canonical isoform): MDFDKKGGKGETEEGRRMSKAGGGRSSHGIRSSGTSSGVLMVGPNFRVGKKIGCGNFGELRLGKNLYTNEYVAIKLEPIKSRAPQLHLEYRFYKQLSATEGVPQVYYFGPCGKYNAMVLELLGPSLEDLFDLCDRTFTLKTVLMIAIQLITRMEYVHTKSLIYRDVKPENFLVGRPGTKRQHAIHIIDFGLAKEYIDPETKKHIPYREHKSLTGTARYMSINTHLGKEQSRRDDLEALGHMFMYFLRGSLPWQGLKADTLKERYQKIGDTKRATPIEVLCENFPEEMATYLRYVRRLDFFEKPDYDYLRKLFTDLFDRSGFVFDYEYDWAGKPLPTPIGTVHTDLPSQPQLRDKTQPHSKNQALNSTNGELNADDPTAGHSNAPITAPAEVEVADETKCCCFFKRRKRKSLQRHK
The target of assay [16] is Death-associated protein kinase 1 (Homo sapiens) (UniProt P53355). Kind of assay: Inhibition of recombinant human GST-tagged DAPK1 catalytic domain (1 to 363 residues) expressed in baculovirus expression system at 0.1 uM using ZIPtide peptide as substrate incubated for 60 mins by Adapta assay relative to control.
Assay [17] concerns the target Ribosomal protein S6 kinase beta-1 (Homo sapiens) (UniProt P23443). Kind of assay: Inhibition of recombinant human GST-tagged p70S6K catalytic domain (1 to 421 residues) expressed in baculovirus expression system at 0.1 uM using serine/threonine-7 peptide as substrate incubated for 60 mins by Z'-LYTE assay relative to control.
For assay [18], the target named is Serine/threonine-protein kinase PAK 6 (Homo sapiens) (UniProt Q9NQU5). Kind of assay: Inhibition of recombinant full length human His-tagged PAK6 expressed in baculovirus expression system at 0.1 uM using serine/threonine-20 peptide as substrate incubated for 60 mins by Z'-LYTE assay relative to control.
Assay [19] deals with Cyclin-Y/Cyclin-dependent kinase 16 (Homo sapiens) (UniProt Q00536+Q8ND76). The assay is described as follows: Inhibition of tracer 236 binding to recombinant human GST-tagged CDK16/cyclin Y catalytic domain (CDK16: 108 to end, Cyclin Y: 2 to end) expressed by baculovirus in Sf9 insect cells expression system at 0.1 uM measured after 60 mins by Lanthascreen assay relative to control.

Assay [20] deals with BDNF/NT-3 growth factors receptor (Homo sapiens) (UniProt Q16620). The assay is described as follows: Inhibition of recombinant human His-tagged TRKB catalytic domain (526 to 838 residues) expressed in baculovirus expression system at 0.1 uM using tyrosine-1 peptide as substrate incubated for 60 mins by Z'-LYTE assay relative to control.
Assay [21] deals with STE20-like serine/threonine-protein kinase (Homo sapiens) (UniProt Q9H2G2). Kind of assay: Inhibition of tracer 236 binding to recombinant full length human GST-tagged SLK expressed in baculovirus expression system at 0.1 uM measured after 60 mins by Lanthascreen assay relative to control.
The target in assay [22] is Mitogen-activated protein kinase 8 (Homo sapiens) (UniProt P45983). The assay is described as follows: Inhibition of recombinant full length human His-tagged JNK1alpha1 expressed in baculovirus expression system at 0.1 uM using serine/threonine-4 peptide as substrate incubated for 60 mins by Z'-LYTE assay relative to control.
Chain of Mitogen-activated protein kinase 8 (Homo sapiens) (P45983 whole entry): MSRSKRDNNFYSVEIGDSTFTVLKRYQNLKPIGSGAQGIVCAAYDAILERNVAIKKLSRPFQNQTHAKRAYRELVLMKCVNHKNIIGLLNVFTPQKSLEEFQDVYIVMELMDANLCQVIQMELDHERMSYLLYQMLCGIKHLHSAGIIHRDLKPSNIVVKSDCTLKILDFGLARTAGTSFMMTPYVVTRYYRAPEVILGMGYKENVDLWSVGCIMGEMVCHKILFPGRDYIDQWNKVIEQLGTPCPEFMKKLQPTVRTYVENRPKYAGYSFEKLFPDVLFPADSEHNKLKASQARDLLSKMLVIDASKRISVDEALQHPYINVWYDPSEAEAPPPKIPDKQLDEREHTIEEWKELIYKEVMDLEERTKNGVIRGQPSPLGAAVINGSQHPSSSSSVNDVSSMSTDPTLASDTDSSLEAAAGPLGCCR

Chain of Aurora kinase B (Homo sapiens) (Q96GD4 whole entry, the tested form may be a part): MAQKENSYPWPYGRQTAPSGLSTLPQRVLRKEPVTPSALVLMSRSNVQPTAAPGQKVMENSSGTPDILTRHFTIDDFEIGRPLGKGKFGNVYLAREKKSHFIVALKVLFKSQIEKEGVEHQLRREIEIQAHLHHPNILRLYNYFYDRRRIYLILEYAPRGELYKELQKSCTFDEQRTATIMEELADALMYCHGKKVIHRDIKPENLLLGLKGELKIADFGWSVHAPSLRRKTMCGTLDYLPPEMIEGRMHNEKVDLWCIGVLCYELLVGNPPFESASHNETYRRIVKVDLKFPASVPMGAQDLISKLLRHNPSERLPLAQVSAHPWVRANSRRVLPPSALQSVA

Regarding `CCN1CC2(C1)CN(c1ccc(Nc3ncc(F)c(-c4cnn5c4[C@H](C)CCCC5)n3)nc1)C2`, the inhibition in assay [1] amounted to 44%; in assay [2], 13.5%; in assay [3], 7.5%; in assay [4] it was 0%; in assay [5] it was 5.5%; in assay [6], 3.5%. In addition, the inhibition in assay [7] is 59%; in assay [8], -1.5%; in [9], 20.5%; in [10] it was 22%; in assay [11], -1.5%; in assay [12], 0%. For the same compound, the inhibition in assay [13] is 20.5%; in [14], 3.5%; in assay [15], 3.5%; in assay [16], 14%; in assay [17], 6%; in assay [18], 3%. The inhibition in assay [19] turned out to be 79%; in assay [20], 6.5%; in assay [21], 10.5%; in assay [22], 78%.

For `CCN1CCN(Cc2ccc(Nc3ncc(F)c(-c4cc(F)c5nc(C)n(C(C)C)c5c4)n3)nc2)CC1` [ABEMACICLIB], the inhibition in [1] worked out at 18%; in assay [2], 1%; in assay [3], 14.5%; in assay [4], 1.5%; in assay [5], 8%; in assay [6], 8%. The inhibition was determined as 35.5% in [7]; 3.5% in assay [8]; 4.7% in [9]; 27.3% in assay [10]; 2% in [11]; 8.7% in [12]. For the same compound, the inhibition in assay [13] worked out at 9.5%; in assay [14] it was 12.5%; in assay [15], 7%; in [16], 31.2%; in assay [17], 5%; in assay [18], 1%. The inhibition in assay [19] was 86.5%; in [20] it was 14%; in assay [21] it was 9.3%; in assay [22] it was 46.2%.
